Measured values reported in publication PMC3214022, “Plasmodium falciparum Parasites Are Killed by a Transition State Analogue of Purine Nucleoside Phosphorylase in a Primate Animal Model” (PLoS ONE, 2011).
Several values for one entry are separate records, joined by “and”; a condition that tells them apart may be missing. Equal entries are not always repeated.

Assay: Weights, CBC and blood chemistry, Table S1 sheet PD-1 (efficacy study in P. falciparum-infected Aotus)
Assay type: in vivo, Aotus lemurinus lemurinus
Experimental: Laboratory bred Aotus lemurinus lemurinus monkeys (0.75–0.89 kg) were maintained as described. […] Blood samples were collected before the treatment started (t = 0), 0.05 h, 0.5 h, 1 h, 2 h, 6 h, 24 h, 48 h, and 6, 12 and 18 days after the first dose from each monkey and processed as described below. Pharmacokinetic parameters were calculated using PKSolver. For efficacy studies, Aotus monkeys were inoculated intravenously with 5×10^6 parasites of the FVO strain of P. falciparum in an approved treatment protocol. […] Parasitaemia was determined by Giemsa-stained thick blood smears prepared daily from the marginal ear vein [41]. Blood samples were collected from each monkey and transferred to tubes containing lithium heparin, centrifuged and both plasma and blood cells were frozen at −80 °C until analysis. Animals received a physical examination and blood chemistry profiles were monitored after treatment as described previously. Any monkey not responding appropriately to treatment was cured of its infection with mefloquine (40 mg kg^−1). […] The day of clearance is defined as the first of three consecutive days in which the thick blood films are parasite negative. The day of recrudescence is the first of three consecutive days of positive thick blood films after a period of clearance. Suppression is defined as a transient decrease in the parasite count post-treatment without clearance.

[1] = IV 10 mg/kg once a day/3 days, day -2, 10 mg/kg
[2] = oral 50 mg/kg once a day/3 days, day 9, 50 mg/kg
[3] = oral 50 mg/kg once a day/3 days, day 12, 50 mg/kg
[4] = oral 50 mg/kg once a day/3 days, day 19, 50 mg/kg
[5] = oral 50 mg/kg once a day/3 days, day 25, 50 mg/kg
[6] = oral 50 mg/kg once a day/3 days, day -2, 50 mg/kg

SMILES: Nc1nc2c(CN3CC(O)C(CO)C3)c[nH]c2c(=O)[nH]1 (centres unmarked) [BCX4945, 4′-deaza-1′-aza-2′-deoxy-1′-(9-methylene)-Immucillin-G]
- Mean Platelet Volume [1]: 14.7 fL and 12.2 fL and 11 fL and 10.9 fL and 13.1 fL
- Monocytes (%) [1]: 5.1% and 3.6% and 2.9% and 6.5% and 4.2%
- Monocytes (x 103/ul) [1]: 0.9 x 103/ul and 0.8 x 103/ul and 0.6 x 103/ul and 0.5 x 103/ul and 0.7 x 103/ul
- Platelets [1]: 354000 µL⁻¹ and 250000 µL⁻¹ and 406000 µL⁻¹ and 431000 µL⁻¹ and 270000 µL⁻¹ and 371000 µL⁻¹
- Red Cell Distribution Width [1]: 12.5% and 12.2% and 11.4% and 12.4% and 12%
- Reticulocytes [1]: 1.9% and 1% and 1.5% and 1.2% and 1.3%
- WEIGHT [1]: 680 g and 766 g and 832 g and 849 g and 684 g
- Blood Urea Nitrogen [2]: 14.3 mg/dL and 15 mg/dL and 13.15 mg/dL
- Creatinine [2]: 0.672 mg/dL and 0.825 mg/dL and 0.587 mg/dL
- Erythrocytes [2]: 4.76e+06 µL⁻¹ and 5.14e+06 µL⁻¹ and 3.94e+06 µL⁻¹
- Granulocytes (%) [2]: 21.7% and 25.8% and 21.1%
- Granulocytes (x 103/ul) [2]: 4.4 x 103/ul and 2.3 x 103/ul and 3.3 x 103/ul
- Hematocrit [2]: 38.1% and 39.5% and 32.5%
- Hemoglobin [2]: 12.9 g/dL and 13.5 g/dL and 10.8 g/dL
- Lymphocytes (%) [2]: 61% and 66.1% and 63.4%
- Mean Corpuscular Hemoglobin [2]: 27.1 pg and 26.3 pg and 27.5 pg
- Mean Corpuscular Volume [2]: 80.1 fL and 76.8 fL and 82.4 fL
- Mean Hemoglobin Content [2]: 33.8 g/dL and 34.2 g/dL and 33.4 g/dL
- Mean Platelet Volume [2]: 11 fL and 13.9 fL
- Monocytes (%) [2]: 17.3% and 8.1% and 15.5%
- Red Cell Distribution Width [2]: 13.3% and 12% and 10.8%
- Reticulocytes [2]: 2.5% and 1.1% and 1%
- WEIGHT [2]: 851 g and 873 g and 776 g
- Blood Urea Nitrogen [3]: 23.05 mg/dL and 23.55 mg/dL and 26.95 mg/dL
- Creatinine [3]: 0.563 mg/dL and 0.686 mg/dL and 0.565 mg/dL
- Erythrocytes [3]: 4.04e+06 µL⁻¹ and 4.25e+06 µL⁻¹ and 2.77e+06 µL⁻¹
- Glutamate Pyruvate Transaminase [3]: 46.7 U/L and 46.1 U/L and 37.8 U/L
- Granulocytes (%) [3]: 17.9% and 26.3% and 14.8%
- Hematocrit [3]: 33.2% and 32.4% and 22.7%
- Hemoglobin [3]: 7.7 g/dL
- Leucocytes [3]: 42000 µL⁻¹ and 22200 µL⁻¹ and 22000 µL⁻¹
- Lymphocytes (%) [3]: 68.1% and 66.2% and 76.8%
- Lymphocytes (x 103/ul) [3]: 28.6 x 103/ul and 14.7 x 103/ul and 16.9 x 103/ul
- Mean Corpuscular Hemoglobin [3]: 27.7 pg and 26.4 pg and 27.6 pg
- Mean Corpuscular Volume [3]: 82.1 fL and 76.4 fL and 81.9 fL
- Mean Hemoglobin Content [3]: 33.7 g/dL and 34.5 g/dL
- Mean Platelet Volume [3]: 11.3 fL and 14.6 fL and 11.8 fL
- Monocytes (%) [3]: 14% and 7.5% and 8.4%
- Red Cell Distribution Width [3]: 13.4% and 11.3%
- Reticulocytes [3]: 1.9% and 2% and 2.3%
- WEIGHT [3]: 800 g and 804 g and 738 g
- Blood Urea Nitrogen [4]: 16.75 mg/dL and 18.3 mg/dL and 27.85 mg/dL
- Creatinine [4]: 0.614 mg/dL and 0.695 mg/dL and 0.678 mg/dL
- Erythrocytes [4]: 3.94e+06 µL⁻¹ and 4.96e+06 µL⁻¹ and 3.82e+06 µL⁻¹
- Granulocytes (%) [4]: 9.6% and 17.6% and 10.1%
- Hematocrit [4]: 35.3% and 41.8% and 36.2%
- Hemoglobin [4]: 11.5 g/dL and 14 g/dL and 11.6 g/dL
- Lymphocytes (%) [4]: 79% and 75.3% and 78.4%
- Mean Corpuscular Hemoglobin [4]: 29.3 pg and 28.3 pg and 30.3 pg
- Mean Corpuscular Volume [4]: 89.8 fL and 84.2 fL and 94.8 fL
- Mean Hemoglobin Content [4]: 32.6 g/dL and 33.6 g/dL and 32 g/dL
- Mean Platelet Volume [4]: 12.3 fL and 13.3 fL and 19.7 fL
- Monocytes (%) [4]: 11.4% and 11.5%
- Monocytes (x 103/ul) [4]: 6.8 x 103/ul and 3.9 x 103/ul
- Red Cell Distribution Width [4]: 22.7% and 21.9% and 24.4%
- Reticulocytes [4]: 1.7% and 1.6% and 1.8%
- WEIGHT [4]: 832 g and 847 g and 757 g
- Blood Urea Nitrogen [5]: 24.4 mg/dL and 16 mg/dL and 21 mg/dL
- Creatinine [5]: 0.52 mg/dL and 0.578 mg/dL and 0.663 mg/dL
- Erythrocytes [5]: 4.62e+06 µL⁻¹ and 4.69e+06 µL⁻¹ and 5.44e+06 µL⁻¹
- Glutamate Pyruvate Transaminase [5]: 17.7 U/L and 27.2 U/L
- Hematocrit [5]: 40.4% and 41.4% and 44.4%
- Hemoglobin [5]: 13.5 g/dL and 14 g/dL and 15.5 g/dL
- Leucocytes [5]: 15400 µL⁻¹ and 16400 µL⁻¹ and 15300 µL⁻¹
- Lymphocytes (%) [5]: 65.9% and 79.6% and 75.3%
- Lymphocytes (x 103/ul) [5]: 10.1 x 103/ul and 13.1 x 103/ul and 11.5 x 103/ul
- Mean Corpuscular Hemoglobin [5]: 29.3 pg and 29.8 pg and 28.6 pg
- Mean Corpuscular Volume [5]: 87.4 fL and 88.1 fL and 81.7 fL
- Mean Hemoglobin Content [5]: 33.5 g/dL and 33.7 g/dL and 35 g/dL
- Mean Platelet Volume [5]: 14.1 fL
- Monocytes (%) [5]: 7.3% and 7% and 11.7%
- Monocytes (x 103/ul) [5]: 1.1 x 103/ul and 1.8 x 103/ul
- Red Cell Distribution Width [5]: 19.2% and 20.4% and 17.9%
- Reticulocytes [5]: 1.3% and 2.1% and 2%
- WEIGHT [5]: 748 g and 818 g and 853 g
- Mean Platelet Volume (oral 50 mg/kg once a day/3 days, day -2): 12.8 fL
- Blood Urea Nitrogen [6]: 18 mg/dL and 23.05 mg/dL
- Creatinine [6]: 0.679 mg/dL and 0.554 mg/dL
- Erythrocytes [6]: 7.17e+06 µL⁻¹ and 6.1e+06 µL⁻¹ and 5.2e+06 µL⁻¹
- Granulocytes (%) [6]: 33.3% and 31.8% and 22.4%
- Hematocrit [6]: 54.4% and 48% and 42.5%
- Hemoglobin [6]: 19.3 g/dL and 17 g/dL and 14.7 g/dL
- Leucocytes [6]: 16900 µL⁻¹ and 15400 µL⁻¹ and 11300 µL⁻¹
- Lymphocytes (%) [6]: 61.5% and 64.5% and 73.1%
- Lymphocytes (x 103/ul) [6]: 10.4 x 103/ul and 9.9 x 103/ul and 8.3 x 103/ul
- Mean Corpuscular Hemoglobin [6]: 26.8 pg and 27.8 pg and 28.2 pg
- Mean Corpuscular Volume [6]: 75.8 fL and 78.6 fL and 81.7 fL
- Mean Hemoglobin Content [6]: 35.4 g/dL and 34.6 g/dL
- Mean Platelet Volume [6]: 10.2 fL and 10.4 fL
- Monocytes (%) [6]: 5.2% and 3.7% and 4.5%
- Monocytes (x 103/ul) [6]: 0.9 x 103/ul and 0.6 x 103/ul and 0.5 x 103/ul
- Platelets [6]: 463000 µL⁻¹ and 389000 µL⁻¹ and 372000 µL⁻¹
- Red Cell Distribution Width [6]: 11.8% and 13.6% and 10.4%
- Reticulocytes [6]: 1.8% and 2% and 1.7%
- WEIGHT [6]: 804 g and 800 g and 738 g
